Test results published in US9676997B2, “Compositions and methods for stabilizing luminogenic substrates” (Promega Corporation, priority 2014, dated 2017).

Experiments:
[1] = Stability of 1.25 mM furimazine in 50% ethanol and 50% propylene glycol with or without 225 mM ATT, in the presence of light, HPLC and Arrhenius plots; format: physicochemical; conditions: for relative peak area percentage at 262 nm: in the presence of light
Experimental: The stability of furimazine in the presence and absence of ATT was measured over time at different temperatures. This study was conducted in the presence of light. Specifically, 1.25 mM furimazine was present in a solution of 50% ethanol and 50% propylene glycol (i.e., the solution without ATT) or a solution of 50% ethanol and 50% propylene glycol with 225 mM ATT (i.e., the solution with ATT). […]
Following incubation, high performance liquid chromatography (HPLC) was utilized to identify the components of the respective solutions at each time point. Specifically, an Agilent 1100 HPLC instrument was used and equipped with a quaternary pump, thermostatted autosampler and column compartment, and a G1311B diode-array detector. The column used was a Synergi-MAX-RP (Phenomenex, Torrance, Calif.) 100 AÅ 50×4.6 2.5 μm. The run on the HPLC was a gradient run with 0.1% TFA in water and acetonitrile. Absorbance was measured at 262 nanometers (nm). Standards of furimazine and its known degradants were run to confirm both the retention time and absorbance trace. 5 μl of each solution was injected and the retention time of furimazine at room temperature was 5.1 minutes.
The results of the HPLC analysis are shown below in Tables 10 and 11 and FIGS. 4A and 4B, in which the values are reported as relative peak area percentage at 262 nm (i.e., the lamba max of the substrate). […] In each of FIGS. 4A and 4B, diamond is 1.25 mM furimazine incubated over time with or without 225 mM ATT, respectively, at −20° C., triangle is 1.25 mM furimazine incubated over time with or without 225 mM ATT, respectively, at 20° C., star is 1.25 mM furimazine incubated over time with or without 225 mM ATT, respectively, at 40° C., and cross is 1.25 mM furimazine incubated over time with or without 225 mM ATT, respectively, at 60° C.
Additionally, Arrhenius plots were generated for furimazine in the presence and absence of ATT to calculate the half-life of furimazine at various temperatures. The Arrhenius equation is as follows: […]
In FIG. 5, the slope was −10831.4, the intercept was 31.3561, and R^2 was 0.9813.
In FIG. 6, the slope was −10106.2, the intercept was 30.1809, and R^2 was 0.9984.

[2] = Photostability of 1.25 mM furimazine in 50% propylene glycol:50% ethanol with or without 225 mM ATT, HPLC; format: physicochemical; conditions: for 10% loss / 50% loss: in the light
Experimental: Specifically, a 2× stock solution of ATT in 50% propylene glycol:50% ethanol (v/v) was prepared, in which the final concentration of ATT was 64.4 mg/mL. A 2× stock solution of furimazine in 50% propylene glycol:50% ethanol (v/v) was also prepared, in which the final concentration of furimazine was 0.95 mg/mL. In one vial, the 2×ATT stock solution was diluted 1:1 in the 2×furimazine stock solution to create a solution containing 225 mM ATT and 1.25 mM furimazine. In a second vial, the 2×furimazine stock solution was diluted 1:1 in 50% propylene glycol:50% ethanol (v/v) to create a control solution without the additive ATT (i.e., “no additive furimazine” control) and containing 1.25 mM furimazine.
The content of each vial was dispensed into separate, clear HPLC vials with insert and these HPLC vials were placed at room temperature (i.e., about 20° C.) in the light (i.e., in the presence of overhead fluorescent light) and at 40° C. in the light. There was one HPLC vial per time point for each temperature.
Stability was measured by HPLC with 5 μL injection and detection at 262 nm. In each chromatogram, the area of the furimazine peak was determined. Stability curves were generated by plotting the area (10^6) vs. time (days) and are shown in FIGS. 13A and 13B for room temperature and 40° C., respectively.

Cc1n[nH]c(=S)[nH]c1=O [ATT, 6-methyl-3-thioxo-3,4-dihydro-1,2,4-triazin-5(2H)-one]
stabilization of furimazine against decomposition ([1]; 225 mM ATT, over time at different temperatures): stabilized furimazine against decomposition over time at different temperatures | stabilization of furimazine against decomposition in the presence of light ([2]; 225 mM ATT, room temperature and 40° C.): stabilized furimazine against decomposition in the presence of light at different temperatures

O=c1c(Cc2ccco2)nc2c(Cc3ccccc3)[nH]c(-c3ccccc3)cn1-2 [Furimazine, furimazine]
relative peak area percentage at 262 nm ([1]; 40° C., 0 days): 89.7% | relative peak area percentage at 262 nm ([1]; 40° C., 1 day): 93.8% | relative peak area percentage at 262 nm ([1]; 40° C., 5 days): 65% | relative peak area percentage at 262 nm ([1]; 40° C., 8 days): 50.1% | relative peak area percentage at 262 nm ([1]; 40° C., 14 days): 27% | relative peak area percentage at 262 nm ([1]; 40° C., 30 days): 3.5% | relative peak area percentage at 262 nm ([1]; 40° C., 90 days): 0% | relative peak area percentage at 262 nm ([1]; 60° C., 0 days): 89.7% | relative peak area percentage at 262 nm ([1]; 60° C., 1 day): 70.1% | relative peak area percentage at 262 nm ([1]; 60° C., 5 days): 1.3%^ | relative peak area percentage at 262 nm ([1]; 60° C., 8 days): 0% | relative peak area percentage at 262 nm ([1]; 60° C., 14 days): 0% | relative peak area percentage at 262 nm ([1]; 60° C., 30 days): 0% | relative peak area percentage at 262 nm ([1]; 60° C., 90 days): 0% | relative peak area percentage at 262 nm ([1]; RT (20° C.), 0 days): 89.7% | relative peak area percentage at 262 nm ([1]; RT (20° C.), 1 day): 97.2% | relative peak area percentage at 262 nm ([1]; RT (20° C.), 5 days): 93.8% | relative peak area percentage at 262 nm ([1]; RT (20° C.), 8 days): 91.7% | relative peak area percentage at 262 nm ([1]; RT (20° C.), 14 days): 86.7% | relative peak area percentage at 262 nm ([1]; RT (20° C.), 30 days): 74.8% | relative peak area percentage at 262 nm ([1]; RT (20° C.), 90 days): 27.1% | Arrhenius plot intercept ([1]; decomposition of furimazine): 30.1809 | Arrhenius plot slope ([1]; decomposition of furimazine): −10106.2 | relative peak area percentage at 262 nm ([1]; −20° C., 0 days): 89.7% | relative peak area percentage at 262 nm ([1]; −20° C., 1 day): 98.3% | relative peak area percentage at 262 nm ([1]; −20° C., 5 days): 96.9% | relative peak area percentage at 262 nm ([1]; −20° C., 8 days): 98.2% | relative peak area percentage at 262 nm ([1]; −20° C., 14 days): 97.7% | relative peak area percentage at 262 nm ([1]; −20° C., 30 days): 98.3% | relative peak area percentage at 262 nm ([1]; −20° C., 90 days): 95.3% | 10% loss ([2]; 40° C.): 0.4 days | 50% loss ([2]; 40° C.): 3.6 days | 10% loss ([2]; room temperature): 0.5 days | 50% loss ([2]; room temperature): 2.1 days
